“And” between values parts separate entries of the source, which are not always exact repeats. Identical values can stand only once. Like-named read-outs stand apart in the source and are kept apart here.
Columns and labels:
Assay type in all cases: cell-based, human
HL-60 cells = test: HL-60 cell growth inhibition, 72 h; conditions: HL-60, 72 h; for IC50: read-out: Cell Growth Inhibition, IC50
Protocol: For growth inhibition studies, HL-60 cells (1.5×10^5 /ml) were grown in RPMI 1640 media (GIBCO, Grand Island, N.Y.) at 37° C. in humidified 5% CO2 for 72 h. Viable cells were determined using trypan blue exclusion and counted in a hemocytometer. The fractional inhibition for each compound concentration (0.0025-0.05 mg/ml in 0.1% dimethylsulfoxide) was analyzed with the median-effect plot using a computer program (Chou, T. -C and P. Talalay, Adv. Enzyme Regul., 22:27-55 (1984); Chou, J. and T. -C. thou, Dose-Effect analysis with microcomputers: Quantitation of ED50, LD50, synergism, antagonism, low-dose risk, receptor ligand binding and enzyme kinetics. A computer software disk for Apple II series or IBM-PC and manual. Elsevier Science Publishers, Elsevier-BioSoft, Cambridge, United Kingdom (1986)). The median-effect concentration (IC50) was determined automatically for three to five dose-effect levels. Cell growth in the absence of plant compound and in the presence of dimethylsulfoxide was used as a control. Dimethylsulfoxide alone inhibited cell growth 3.9%±1.5% during the 72 h incubation period. Those data with negative values represent activations.

[1] = system: RNA synthesis in HL-60 cells; test: Inhibition of [5-3H]Cyd incorporation into RNA of HL-60 cells; conditions: Homo sapiens, HL-60, 0.5 h
Protocol: (§1) For the precursor incorporation studies, each compound (in 0.3% dimethylsulfoxide) was preincubated with HL-60 cells (a human promyelocytic leukemic cell line) 2.2×10^6 /ml, for 15 min prior to the addition of the labeled precursor (obtained from ICN Radiochemicals, Irvine, Calif.) and then incubated for 30 min. The precursors used for incorporation into DNA, RNA and protein were [^3 H-methyl]dThd (1 μCi, 0.15 nmole/ml), [5-^3 H]Cyd (5 μCi, 0.23 nmol/ml), and [2,3,4,5-^3 H]L-Leu (0.5 μCi, 0.004 nmol/ml), respectively. Incorporation of radioactivity in the absence of a plant compound and in the presence of dimethylsulfoxide was used as a control. The control values for incorporation into DNA, RNA and protein were 8,500, 5,600 and 1,700 cpm/10^6 cells, respectively. The incubation conditions and the procedures for isolating DNA, RNA and protein fractions have been previously described (Chou, T. -C., et al., Cancer Res., 43:3074-3079 (1983)) .
(§2) HL-60 cells were incubated with [5-^3 H]Cyd or [2,3,4,5-^3 H]L-Leu in the presence and absence of alkaloids (0.03 mg/ml) in order to find the effects of the alkaloid on the incorporation of labeled precursors into RNA or protein. […] Over 90% of RNA and protein biosynthesis were inhibited by compounds 11, 16, 17, 22, 28, 29and 30 (Table 1). […] In most cases, the amount required to inhibit precursor incorporation into DNA was less than that to inhibit precursor incorporation into RNA or protein (i.e. DNA synthesis is inhibited most potently).

[2] = system: DNA synthesis in HL-60 cells; test: Inhibition of [3H-methyl]dThd incorporation into DNA of HL-60 cells; conditions: for inhibition at 30 µg/mL: Homo sapiens, HL-60, at 0.03 mg/mL, read-out: % Inhibition of Precursor Incorporation, DNA; for inhibition of DNA synthesis, in words: HL-60, 0.03 mg/ml; for % Inhibition of Precursor Incorporation, DNA: at 0.03 mg/mL
Protocol: as §1, with “control.” for “control. The control values for incorporation into DNA, RNA and protein were 8,500, 5,600 and 1,700 cpm/10^6 cells, respectively. The incubation conditions and the procedures for isolating DNA, RNA and protein fractions have been previously described (Chou, T. -C., et al., Cancer Res., 43:3074-3079 (1983)) .”
Human promyelocytic cells (HL-60) were incubated with [^3 H-methyl]dTHDin the presence and absence of a plant alkaloid.

[3] = system: protein synthesis in HL-60 cells; test: Inhibition of [2,3,4,5-3H]L-Leu incorporation into protein of HL-60 cells; conditions: Homo sapiens
Protocol: as §1, §2

[4] = at 0.03 mg/mL, read-out: % Inhibition of Precursor Incorporation, RNA
[5] = HL-60, at 0.03 mg/mL, read-out: % Inhibition of Precursor Incorporation, Protein
[6] = read-out: % Inhibition of Precursor Incorporation, RNA, at 0.03 mg/mL
[7] = HL-60, read-out: % Inhibition of Precursor Incorporation, Protein, at 0.03 mg/mL

SMILES | IC50 (HL-60 cells; Homo sapiens) | inhibition at 30 µg/mL [1, 4] [%] | inhibition at 30 µg/mL [2] [%] | inhibition at 30 µg/mL [3, 5] [%] | inhibition of DNA synthesis, in words [2] | cell growth inhibition, in words (HL-60 cells) | inhibition at 30 µg/mL [1, 6] [%] | inhibition at 30 µg/mL [3, 7] [%] | Cell Growth Inhibition, IC50 (HL-60 cells) [mg/mL] | IC50 (HL-60 cells) [µM] | % Inhibition of Precursor Incorporation, DNA [2] [%]
COc1cc(O)c2c(=O)c3ccc(OC)c(OC)c3n(C)c2c1 | > 40 µg/mL and > 127 µM | 95 | 34.8 | 28.3 |  |  |  |  |  |  | 
O=c1c2ccccc2[nH]c2cc(O)cc(O)c12 [Compound 4, 1,3-Dihydroxy-acridone] | 20.6 µg/mL and 90.7 µM | 50.6 | 76.7 | 62.8 | no significant activity |  |  |  |  |  | 
CC(=O)Oc1cc(OC(C)=O)c2c(=O)c3ccccc3[nH]c2c1 [Compound 5, 1,3-O,O-Diacetyl-acridone] | > 40 µg/mL and > 129 µM | 24.9 | 39.7 | 26.9 | no significant activity |  |  |  |  |  | 
CC(=O)Oc1cc(OC(C)=O)c2c(=O)c3ccccc3n(C)c2c1 [Compound 6] | > 40 µg/mL and > 123 µM | 2.7 | 23 | -12.8 |  |  |  |  |  |  | 
COc1cc(O)c2c(=O)c3ccccc3n(C)c2c1 [Compound 7, 1-Hydroxy-3-methoxy N-methyl acridone] | > 40 µg/mL and > 157 µM | 39.5 | 48.4 | 25.2 |  |  |  |  |  |  | 
COc1cc(O)cc2c1c(=O)c1ccccc1n2C [Compound 8, 1-Methoxy-3-Hydroxy N-methyl acridone] | > 40 µg/mL and > 157 µM | 51.2 | 53.3 | 25.7 |  |  |  |  |  |  | 
COc1cc(OC(C)=O)cc2c1c(=O)c1ccccc1n2C [Compound 9, 3-O-Acetyl-1-methoxy-R-methyl acridone] | 30.5 µg/mL and 103 µM | 61.6 | 71.1 | 30 |  |  |  |  |  |  | 
COc1cc(OC)c2c(=O)c3ccccc3n(C)c2c1 [Compound 10, 1,3-Dimethoxy-N-methyl acridone] | 9.2 µg/mL and 34.2 µM | 65.8 | > 90 | 64.4 | excellent inhibitory effect |  |  |  |  |  | 
CC(C)=CCc1c(O)cc(O)c2c(=O)c3ccccc3n(C)c12 [Compound 11, Glycocitrine-II] | 8.2 µg/mL and 26.5 µM | 97.1 | 99.5 | 95.3 | potent inhibitor |  |  |  |  |  | 
COc1cc(O)c2c(=O)c3ccccc3n(C)c2c1CC=C(C)C [Compound 12, 3-O-methyl-glycocitrine-II] | > 40 µg/mL and > 124 µM | 53.8 | 61.8 | 50.3 | only moderate inhibitory activity |  |  |  |  |  | 
COc1cc(O)c2c(=O)c3cccc(O)c3n(C)c2c1CC=C(C)C [Compound 13, Glycocitrine-I] | 1.4 µg/mL and 4.1 µM | 43.9 | 97.5 | 41.1 |  | significant activity against leukemic cells in vitro |  |  |  |  | 
COc1cc(OC(C)=O)c2c(=O)c3cccc(OC(C)=O)c3n(C)c2c1CC=C(C)C [Compound 14, OO-Diacetyl-glycocitrine-I] | 5.6 µg/mL and 13.2 µM | 63.8 | 94.7 | 89.8 |  | significant activity against leukemic cells in vitro |  |  |  |  | 
COc1c(O)cc(O)c2c(=O)c3cccc(O)c3n(C)c12 [Compound 15, Citrusinine-II] | 17 µg/mL and 59.2 µM |  | 88.5 |  |  |  | 91.7 | 54.3 |  |  | 
COc1cc(O)c2c(=O)c3cccc(O)c3n(C)c2c1OC [Compound 16, Citrusinine-I] | 2.6 µg/mL and 8.6 µM |  | 97 |  |  | significant activity against leukemic cells in vitro | 96.5 | 87 |  |  | 
COc1cc(OC)c2c(=O)c3cccc(OC)c3n(C)c2c1OC [Compound 18, 1,3,4,5-Tetra-methoxy-N-methyl acridone] | 13.3 µg/mL and 40.4 µM | 57 | 91.5 | 71.8 |  |  |  |  |  |  | 
COc1ccc2c(=O)c3c(O)cc(O)cc3n(C)c2c1OC [Compound 19, Grandisine-II] | > 40 µg/mL and > 133 µM | 96 | 76.5 | 27.3 |  |  |  |  |  |  | 
COc1ccc2c(=O)c3c(O)cc(OC(C)=O)cc3n(C)c2c1OC [Compound 20, O-Acetyl-grandisine-II] | 38.7 µg/mL and 113 µM | 77 | 24.4 | -5.6 |  |  |  |  |  |  | 
COc1cc(O)c2c(=O)c3ccc(OC)c(O)c3n(C)c2c1 [Compound 21, Grandisine-I] | > 40 µg/mL and > 133 µM | 69.5 | 71.7 | 22.8 |  |  |  |  |  |  | 
COc1cc(O)c2c(=O)c3ccc(O)c(OC)c3n(C)c2c1 [Compound 22, Citpressine-I] |  |  |  |  |  |  |  |  | > 0.04 | > 133 | 65.0
COc1cc(OC)c2c(=O)c3ccc(OC)c(OC)c3n(C)c2c1 [Compound 24, 1-O-Methyl-citpressine-II] | 22 µg/mL and 66.8 µM | 67.3 | 93.1 | 75.6 |  |  |  |  |  |  | 93
COc1c(O)ccc2c(=O)c3c(O)c(CC=C(C)C)c(O)cc3n(C)c12 [Compound 25, Buntanine] | 3.6 µg/mL and 10.1 µM | 29.8 | 96.6 | 40.1 |  |  |  |  |  |  | 
CC(C)=CCc1c(O)c(CC=C(C)C)c2c(c1O)c(=O)c1cccc(O)c1n2C [Compound 26, N-methyl-atalaphylline] | 5.4 µg/mL and 13.7 µM |  | 99.6 |  |  | significant activity against leukemic cells in vitro | 28.2 | 44.3 |  |  | 
COc1c(O)ccc2c(=O)c3c(O)cc(O)c(CC=C(C)C)c3n(C)c12 [Compound 27, Prenylcitpressine] | 36 µg/mL and 94.5 µM | 21.1 | 52.4 | -15.7 |  |  |  |  |  |  | 
COc1c(OC(C)=O)ccc2c(=O)c3c(O)cc(OC(C)=O)c(CC=C(C)C)c3n(C)c12 [Compound 28, 3,6-O,O-Diacetyl-prenylcitpressine] | 2.2 µg/mL and 5 µM | 96.1 | 96.8 | 89.6 |  | significant activity against leukemic cells in vitro |  |  |  |  | 

Source: patent US5340818A, “Methods and compositions for inhibiting tumor cell growth” (priority 1993, dated 1994)
